Data on seven compounds can be found in PMC8879803, “Identification of a Common Pharmacophore for Binding to MMP2 and RGD Integrin: Towards a Multitarget Approach to Inhibit Cancer Angiogenesis and Metastasis” (Molecules, 2022).

For one test, the target named is MMP9 (Homo sapiens, UniProt P14780). In words: Fluorometric enzyme inhibition assay with fluorogenic substrate Mca-Lys-Pro-Leu-Gly-Leu-Dpa-Ala-Arg-NH2 (MMP9). The format is biochemical. To be noted: for inhibition at 10 µM: 10 μM compound; for inhibition at 10 µM / inhibition at 50 µM / IC50: enzyme 1 nM; for inhibition at 10 µM / inhibition at 50 µM: mean of three assays; for inhibition at 50 µM: 50 μM compound; for IC50: dose-response. The procedure: (§1) For all the compounds showing >50% inhibition activity the IC50 values were obtained by dose-response measurements using an inhibitor range of concentrations (0.01 nM–20 μM) and enzyme concentration equal to 1 nM.
(§2) The inhibition potency of hydroxamic acid derivatives against MMP2 and MMP9 was assayed through a fluorometric assay using the fluorogenic substrate Mca-Lys-Pro-Leu-Gly-Leu-Dpa-Ala-Arg-NH2 (Enzo life science). All the measurements were performed in 96-well plates with a Fluostar Optima microplate reader (BMG Labtech, Ortenberg, Germany). Excitation and emission wavelengths were 320 and 420 nm, respectively. All incubations were performed at 28 °C in 50 mM TrisHCl, 150 mM NaCl, 10 mM CaCl2, 0.05% Brij 35, 1% DMSO at pH 7.5. The inhibitors were pre-incubated with enzymes (1 nM) for 5 min at room temperature before the reaction was started by the addition of the fluorogenic substrate (3 µM). The […] of fluorescence was monitored over 30 min (λex = 320 nm, λem = 420 nm) at 28 °C. The percentages of inhibition for the test compounds were determined through the equation (1 − Vs/Vo) × 100, where vs. is the initial velocity in the presence of the inhibitor and V0 is the initial velocity of the uninhibited reaction. The IC50 values were obtained by dose-response measurements using inhibitor range of concentrations 0.00001–20 μM and enzyme concentration equal to 1 nM. A detergent-based assay was used to determine the presence of promiscuous inhibitors. All the experiments were performed in triplicates and data collected were analyzed using Graphpad 5.0 Software Package (GraphPad Prism Inc., San Diego, CA, USA).

The target of test [1] is T1, purified human integrin proteins αvβ3 (Homo sapiens, UniProt P05106+P06756).
T1 construct: purchased Sino Biological Europe GmbH, Eschborn, Germany
Description: Solid-phase integrin binding assay (competition with biotinylated vitronectin). The settings on record: for inhibition at 0.1 µM / inhibition at 1 µM / inhibition at 10 µM: read-out: Inhibition % of biotinylated vitronectin specific binding to αvβ3. The method, then: As regarding to the binding affinity towards αvβ3, the library was screened using an in vitro solid-phase assays were performed at 10, 1.0 and 0.1 μM concentration of the test compounds for their ability to compete with biotinylated vitronectin for binding to pure αvβ3 integrin isolated from human placenta, and % binding activity is reported in Table 2.
Purified αvβ3 receptors (Sino Biological Europe GmbH, Eschborn, Germany) were diluted to 0.5 μg/mL in coating buffer containing Tris-HCl (20 mmol/L; pH 7.4), NaCl (150 mmol/L), MnCl2 (1 mmol/L), CaCl2 (2 mmol/L) and MgCl2 (1 mmol/L). An aliquot of diluted receptors (100 μL per well) was added to 96-well microtiter plates (MW 96F Medisorp Straight Nunc, Thermo Fischer Scientific, Waltham, MA, USA) and incubated, overnight, at 4 °C. The plates were then incubated with blocking solution (coating buffer plus 5% bovine serum albumin) for an additional 2 h at room temperature to block nonspecific binding followed by 3 h incubation at room temperature with various concentrations of test compounds in the presence of vitronectine (1 μg/mL, Sigma Aldrich, Merck KGaA, Darmstadt, Germany) biotinylated by using EZ-Link Sulfo-NHS-Biotinylation kit (Thermo Fisher, Waltham, MA, USA). After washing, the plates were incubated for 1 h at room temperature with streptavidin–biotinylated peroxidase complex (GE Healthcare, Chicago, IL, USA), followed by 30 min incubation with substrate reagent solution (100 μL; R&D Systems) before stopping the reaction by addition of H2SO4 (2 N, 50 μL). Absorbance at 415 nm was read with a BMG Labtech Fluostar Optima microplate reader. All the experiments were performed in triplicates and data collected were analyzed using the GraphPad 5.0 Software Package.

In a further test the target is T2, MMP2 (Homo sapiens, UniProt P08253).
T2 sequence (P08253 110-660): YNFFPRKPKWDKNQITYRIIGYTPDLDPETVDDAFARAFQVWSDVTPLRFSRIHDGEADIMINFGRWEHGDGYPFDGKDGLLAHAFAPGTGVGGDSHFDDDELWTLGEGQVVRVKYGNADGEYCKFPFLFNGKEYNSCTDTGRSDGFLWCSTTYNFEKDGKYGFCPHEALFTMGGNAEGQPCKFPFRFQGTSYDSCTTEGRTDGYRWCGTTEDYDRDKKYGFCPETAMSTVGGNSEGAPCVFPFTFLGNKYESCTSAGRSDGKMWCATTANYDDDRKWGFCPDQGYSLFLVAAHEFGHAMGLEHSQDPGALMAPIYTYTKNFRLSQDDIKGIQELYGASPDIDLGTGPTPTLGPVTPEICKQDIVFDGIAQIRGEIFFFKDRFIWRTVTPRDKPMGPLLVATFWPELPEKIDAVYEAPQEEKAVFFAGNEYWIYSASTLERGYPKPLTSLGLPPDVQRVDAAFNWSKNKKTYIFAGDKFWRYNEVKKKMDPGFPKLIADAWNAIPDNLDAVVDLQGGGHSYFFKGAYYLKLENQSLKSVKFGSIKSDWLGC
Description: Fluorometric enzyme inhibition assay with fluorogenic substrate Mca-Lys-Pro-Leu-Gly-Leu-Dpa-Ala-Arg-NH2 (MMP2). The format is biochemical. The settings on record: for inhibition at 10 µM: 10 μM compound; for inhibition at 10 µM / inhibition at 50 µM / IC50: enzyme 1 nM; for inhibition at 10 µM / inhibition at 50 µM: mean of three assays; for inhibition at 50 µM: 50 μM compound; for IC50: dose-response. The method, then: as §1, §2

In the next test the test system is M21 human melanoma cells. Description: Inhibition of integrin-mediated M21 cell adhesion to vitronectin. The settings on record: 2 mM MnCl2, relative to vehicle (PBS); for inhibition at 0.3 µM / inhibition at 3 µM / inhibition at 30 µM: Homo sapiens, M21. The format is cell-based. The procedure: All the compounds but 17 were also tested for their integrin binding affinity towards M21 human melanoma cells that expresses high levels of αvβ3 heterodimer and using cilengitide as a control. Tests were performed in the presence of 2 mM MnCl2 to switch integrins of tumour cells into an activated form, and at final concentration of the compounds ranging from 30 μM to 0.3 μM (Table 3). […] We were pleased to find that compound 19 maintained a good inhibition potency at 0.3 μM as the lowest concentration used, thus confirming the capacity of this compound to inhibit the binding of M21 melanoma cells to vitronectin as an RGD-containing substrate.
The expression levels of αVβ3 integrin receptors on M21 melanoma cell lines were reported previously. Next, 96 wells plates were coated overnight, at 4 °C, with vitronectin (5 μg/mL in PBS) (V8379 Sigma). Plates were, then washed with phosphate buffered saline (PBS) solution and incubated at 37 °C for 1 h with PBS containing 1% bovine serum albumin (BSA). M21 cells were centrifugated (RT, at 700× g) in PBS, to remove serum. Cells were counted and suspended in serum-free medium at 5.0 × 10^5 cells/mL. Melanoma cell suspensions were pre-incubated with different amounts of the compounds. The final concentration ranged from 30 uM to 0.3 uM, using cilengitide as a control. The incubation was performed at 37 °C for 30 min to allow the ligand-receptor equilibrium to be reached. Next, cells were plated on VN substrata (5–6 × 10^4 cells/well) and incubated at 37 °C for 1 h. The assays were conducted in the presence of 2 mmol/L MnCl2 [26]. At the end of the incubation, plates were washed with PBS to remove the non-adherent cells, and 200 μL of 0.5% crystal violet solution in 20% methanol were added. After 2 h of static incubation at 4 °C, plates were examined at 540 nm in a counter ELX800 (Bio TEK Instruments, Winooski, VT, USA). Experiments were done in triplicate and repeated at least three times. The values are expressed as % inhibition of cell adhesion relative to cells exposed to vehicle alone (PBS).

On MMP9, `N=C(N)NCCCOc1ccc(C[C@H](NS(=O)(=O)c2ccccc2)C(=O)O)cc1` [Compound 9, (S)-3-(4-(3-Guanidinopropoxy)phenyl)-2-(phenylsulfonamido)propanoic Acid] gave an inhibition at 10 µM of 0% and an inhibition at 50 µM of 0%. In addition, in test [1], the inhibition at 0.1 µM is 0%, the inhibition at 1 µM is 18% and the inhibition at 10 µM was found to be 54%. At MMP2, this compound came in with an inhibition at 10 µM of 0% and an inhibition at 50 µM of 21%. The compound further showed an inhibition at 0.3 µM in the test with M21 human melanoma cells (at 0.3 μM) of 41.4%. Further, the inhibition at 3 µM in the test on M21 human melanoma cells (at 3 μM) was determined as 62.5%. Moreover, the inhibition at 30 µM in the test with M21 human melanoma cells (at 30 μM) stood at 75.9%.
Take `N=C(N)NCCCOc1ccc(C[C@H](NS(=O)(=O)c2ccc(-c3ccccc3)cc2)C(=O)O)cc1` [Compound 10, (S)-2-([1,1′-Biphenyl]-4-ylsulfonamido)-3-(4-(3-guanidinopropoxy)phenyl)propanoic Acid]: on MMP9, the inhibition at 10 µM is 0% and the inhibition at 50 µM turned out to be 0%. In test [1], the inhibition at 0.1 µM was determined as 8%, the inhibition at 1 µM stood at 1% and the inhibition at 10 µM is 5%. Also, at MMP2, the inhibition at 10 µM came to 16% and testing at 50 µM gave an inhibition of 41%. For the same compound, the inhibition at 0.3 µM in the test with M21 human melanoma cells (at 0.3 μM) came to 43.8%. In the test on M21 human melanoma cells (at 3 μM), this compound yielded an inhibition at 3 µM of 76.7%. Moreover, in the test with M21 human melanoma cells (at 30 μM), the inhibition at 30 µM was 76.9%.
On MMP9, `NCCCOc1ccc(C[C@H](NS(=O)(=O)c2ccc(-c3ccccc3)cc2)C(=O)O)cc1` [Compound 16, (S)-2-([1,1′-Biphenyl]-4-ylsulfonamido)-3-(4-(3-aminopropoxy)phenyl)propanoic Acid] gave an inhibition at 10 µM of 0% and an inhibition at 50 µM of 0%. Besides, in test [1], the inhibition at 0.1 µM worked out at 26%, the inhibition at 1 µM stood at 26% and the inhibition at 10 µM came out at 19%. In addition, on MMP2, the “IC50 towards MMP2, in words” value is “micromolar range”; the inhibition at 10 µM turned out to be 60%; the inhibition at 50 µM stood at 79%; the IC50 amounted to 1.2 µM. The inhibition at 0.3 µM in the test on M21 human melanoma cells (at 0.3 μM) amounted to 28%. The inhibition at 3 µM with M21 human melanoma cells (at 3 μM) came out at 28.9%. Moreover, at 30 µM the inhibition with M21 human melanoma cells (at 30 μM) was 68.5%.
At MMP9, `NCCCOc1ccc(C[C@H](NS(=O)(=O)c2ccc([N+](=O)[O-])cc2)C(=O)O)cc1` [Compound 17, (S)-3-(4-(3-Aminopropoxy)phenyl)-2-(4-nitrophenylsulfonamido)propanoic Acid] had an inhibition at 10 µM of 0% and an inhibition at 50 µM of 0%. Besides, in test [1], the inhibition at 0.1 µM was 0%, the inhibition at 1 µM worked out at 0% and the inhibition at 10 µM turned out to be 0%. Moreover, at MMP2, at 10 µM the inhibition was 0% and 50 µM produced 0% inhibition.
On MMP9, `N=C(N)NCCCOc1ccc(C[C@H](NS(=O)(=O)c2ccccc2)C(=O)NO)cc1` [Compound 18, (S)-3-(4-(3-Guanidinopropoxy)phenyl)-N-hydroxy-2-(phenylsulfonamido)propanamide] had an inhibition at 10 µM of 42%, an inhibition at 50 µM of 63% and an IC50 of 1.3 µM. In test [1], the inhibition at 0.1 µM stood at 0%, the inhibition at 1 µM amounted to 0% and the inhibition at 10 µM was determined as 27%. Also, on MMP2, the inhibition at 10 µM is 52%, at 50 µM the inhibition was 75% and 0.76 µM corresponded to half-maximal inhibition (IC50). This compound also had an inhibition at 0.3 µM in the test with M21 human melanoma cells (at 0.3 μM) of 44.9%. The same compound gave an inhibition at 3 µM in the test with M21 human melanoma cells (at 3 μM) of 64.3%. In the test on M21 human melanoma cells (at 30 μM), this compound yielded an inhibition at 30 µM of 74.1%.
On MMP9, `NCCCOc1ccc(C[C@H](NS(=O)(=O)c2ccc(-c3ccccc3)cc2)C(=O)NO)cc1` [Compound 19, (S)-2-([1,1′-Biphenyl]-4-ylsulfonamido)-3-(4-(3-aminopropoxy)phenyl)-N-hydroxypropanamide] had an inhibition at 10 µM of 100%, an inhibition at 50 µM of 100% and an IC50 of 0.038 µM. At MMP9 (statement in text (gelatinases)), the “IC50 towards MMP9, in words” value was “nanomolar range”. In test [1], the inhibition at 0.1 µM was determined as 21%, the inhibition at 1 µM was determined as 41% and the inhibition at 10 µM came to 88%. The IC50 in test [1] (dose-response assay, read-out: IC50 (αvβ3), inhibition of biotinylated vitronectin binding) worked out at 0.37 µM. Moreover, at MMP2, the “IC50 towards MMP2, in words” value is given as “nanomolar range”; 10 µM produced 100% inhibition; 50 µM produced 100% inhibition; the midpoint of inhibition, the IC50, lay at 0.055 µM. 0.3 µM produced 57.8% inhibition in the test on M21 human melanoma cells (at 0.3 μM). The compound also returned an inhibition at 3 µM in the test with M21 human melanoma cells (at 3 μM) of 35.8%. Besides, testing at 30 µM in the test with M21 human melanoma cells (at 30 μM) gave an inhibition of 65.7%.
As for “c[RGDf(Me)V] [Cilengitide, reference compound]”, the “Inhibition % of M21 cell adhesion to vitronectin” value with M21 human melanoma cells (at 0.3 μM) is recorded as 80%; with M21 human melanoma cells (at 3 μM), 76%; with M21 human melanoma cells (at 30 μM), 62%.
